Literature values, collected in patent publication US20240099995A1, “METHOD OF PREPARING A TOPICAL PHARMACEUTICAL COMPOSITION” (PHEBRA PTY LTD, priority 2021, published 2024).
Like-named read-outs stand apart in the source and are kept apart here.

Legend:
[1] = not given; remark: listed apart in the source

| Compound | concentration loss (4° C. and above, after 2 days) [%] | concentration loss (22° C., within 90 minutes) [%] | time stable (stored in a freezer, acidic and basic conditions) | duration of topical anesthesia ([1]; with adrenaline) [min] | duration of topical anesthesia ([1]; without adrenalin) [min] |
| --- | --- | --- | --- | --- | --- |
| CNCC(O)c1ccc(O)c(O)c1 (centres unmarked) [adrenaline] | 100 | 100 | at least 28 days |  |  |
| CCN(CC)CC(=O)Nc1c(C)cccc1C [lignocaine] |  |  |  | 120 to 360 | 30 to 60 |
